Values joined by “and” are separate entries in the source; they are usually repeats but may differ in a detail not shown here. Identical values can stand only once. Like-named read-outs stand apart in the source and are kept apart here.
Assays:
TPH1 = target: T1, TPH1 (Homo sapiens, UniProt P17752); assay: Differential scanning fluorimetry (DSF) thermal stability assay; format: binding; details: for Tm (°C) ± SD (°C), primary screen / ΔTm at 50 µM / ΔTm (°C) ± SD (°C), primary screen: DSF, 50 μM compound; for Tm (°C) ± SD (°C), primary screen: 0.075 mg/mL TPH1, 0.5% DMSO, three independent measurements (a: duplicates); for ΔTm at 50 µM / ΔTm (°C) ± SD (°C), primary screen: vs averaged Tm of 0.5% DMSO controls; for ΔTm at 50 µM: read-out: ΔTm (°C) ± SD (°C), primary screen; for Kd: read-out: apparent KD (μM), dose-response
T1 construct: doubly truncated human TPH1 (ΔNH102-ΔCOOH402); made in house; host or cells: E. coli BL21(DE3)
Experimental: A fluorescence-based thermal stability assay (differential scanning fluorimetry, DSF) was used for testing the effects of HDIs on the thermal stability of TPH1.
For initial high throughput screening (HTS), compounds were prepared at a concentration of 10 mM (in some cases, 5 mM) in 100% DMSO. Initial HTS screening was performed on TPH1 with and without compounds using a LightCycler 480 Real-Time PCR System (Roche Applied Science). TPH1 was diluted to 0.075 mg/mL in 50 mM Tris pH 8.0, 200 mM NaCl, 0.5 mM TCEP, and 5% glycerol with 5x SYPRO Orange. Compounds were added to a final concentration of 50 μM. Controls with 0.5% DMSO were performed on each 384-well microplate. Unfolding curves were recorded from 20 to 95 °C at a scan rate of 2 °C/min and monitored at excitation = 465 nm and emission = 610 nm. Selected hits were validated further by serial dilution from 250 μM to 122 nM, keeping the DMSO concentration constant at 2%.
DSF data were analyzed using HTSDSF Explorer.[55] Melting temperature (Tm) was calculated from the maximum value of the first derivative of the unfolding curve. ΔTm (Tm with compound–averaged Tm in DMSO controls) was plotted for all validated curves and a threshold of 2 °C was set (typically, cutoff at ΔTm = 3-fold the SD of the Tm of the DMSO control).
Preliminary binding constants (KD) were calculated by fitting data to the equation [drawing 1] where ΔH0 is the enthalpy of the unfolding of the protein in the presence of ligand ([L]), and R is the gas constant.

[1] = Solubility observed in DSF dose-response; format: physicochemical; details: highest concentrations removed before curve fitting
HDAC 6 = details: human recombinant HDAC; ref 5 (10.1021/acs.jmedchem.8b01090); cited from earlier work
human PAH = target: T2, human PAH (Homo sapiens, UniProt P00439); assay: PAH enzyme activity assay (HPLC, L-Tyr); format: biochemical; details: best-fit IC50 (± SE), nonlinear regression, N.A. = no activity
T2 construct: Full-length human TH isoform 1 (TH1), human PAH, human TPH2, and doubly truncated human TPH1; made in house; host or cells: E. coli TB1
T2 sequence (P00439 1-452): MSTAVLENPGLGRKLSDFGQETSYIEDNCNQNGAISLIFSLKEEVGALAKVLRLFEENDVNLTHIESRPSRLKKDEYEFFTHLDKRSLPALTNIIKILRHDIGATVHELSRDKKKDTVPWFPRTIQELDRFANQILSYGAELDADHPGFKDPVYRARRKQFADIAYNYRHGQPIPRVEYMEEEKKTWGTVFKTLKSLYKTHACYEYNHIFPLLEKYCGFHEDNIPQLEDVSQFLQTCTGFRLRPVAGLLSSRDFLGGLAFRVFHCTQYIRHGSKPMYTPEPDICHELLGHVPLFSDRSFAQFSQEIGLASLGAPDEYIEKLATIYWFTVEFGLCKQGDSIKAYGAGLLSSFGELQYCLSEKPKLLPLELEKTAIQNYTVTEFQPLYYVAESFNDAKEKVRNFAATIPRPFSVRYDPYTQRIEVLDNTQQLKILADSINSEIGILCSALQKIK

human TH isoform 1 (TH1) = target: T3, human TH isoform 1 (TH1) (Homo sapiens, UniProt P07101); assay: TH enzyme activity assay (HPLC, L-DOPA); format: biochemical; details: best-fit IC50 (± SE), nonlinear regression; N.A. = no activity
T3 construct: Full-length human TH isoform 1 (TH1); His6-ZZ fusion partner (one of the two preparations only) (cleaved yes); made in house; host or cells: E. coli BL21(DE3) pLysS (pET3a) or BL21 CodonPlus (pET-ZZ-1a)
Experimental: The activity of purified PAH, TH, TPH1, and TPH2 was measured using high-performance liquid chromatography (HPLC) as previously described.[50],[56],[57]
TH activities were performed in a standard reaction mixture containing 40 mM Hepes (pH 7.0), 0.1 mg/mL catalase, 10 μM ferrous ammonium sulfate, and 50 μM L-Tyr. Compounds were incubated with TH (0.01 mg/mL) in the reaction mixture for 10 min on ice. The enzymatic reaction was initiated by adding 200 μM BH4 and 2 mM DTT (final concentrations) and stopped by precipitation with 2% (v/v) acetic acid in ethanol after 5 min at 37 °C. The product, L-DOPA, was quantified by HPLC utilizing a fluorescence monitor set at 281 and 314 nm for excitation and emission, respectively.
GraphPad Prism (version 10; La Jolla, CA) was used for analyzing the enzyme inhibition data.

HDAC 1 = details: human recombinant HDAC; ref 5 (10.1021/acs.jmedchem.8b01090); cited from earlier work
human TPH2 = target: T4, human TPH2 (Homo sapiens, UniProt Q8IWU9); assay: TPH2 enzyme activity assay (HPLC); format: biochemical; details: best-fit IC50 (± SE), nonlinear regression; N.A. = no activity
T4 construct: Full-length human TH isoform 1 (TH1), human PAH, human TPH2, and doubly truncated human TPH1; MBP (cleaved yes); made in house; host or cells: E. coli BL21(DE3)
T4 sequence (Q8IWU9 1-490): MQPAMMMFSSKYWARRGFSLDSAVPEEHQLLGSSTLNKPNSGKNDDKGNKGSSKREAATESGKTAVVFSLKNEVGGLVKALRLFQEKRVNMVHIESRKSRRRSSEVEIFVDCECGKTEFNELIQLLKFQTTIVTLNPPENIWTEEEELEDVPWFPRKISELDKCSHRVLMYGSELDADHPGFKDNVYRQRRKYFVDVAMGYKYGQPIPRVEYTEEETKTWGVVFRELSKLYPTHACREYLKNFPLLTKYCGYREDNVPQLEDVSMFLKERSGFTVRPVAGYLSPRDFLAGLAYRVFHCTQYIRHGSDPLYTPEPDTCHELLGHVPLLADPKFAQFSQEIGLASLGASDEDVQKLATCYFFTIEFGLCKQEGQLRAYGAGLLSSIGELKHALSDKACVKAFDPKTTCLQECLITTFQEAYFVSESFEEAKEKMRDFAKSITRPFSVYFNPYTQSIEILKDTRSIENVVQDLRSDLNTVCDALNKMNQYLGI
Experimental: (§1) TPH1 enzymatic activity assays were performed with the selected hits from the DSF screening in the presence and absence of 50 μM of each compound. The final concentration of DMSO was 0.5% (v/v), and control experiments used 0.5% DMSO in the absence of ligand. Assays were performed in a standard reaction mixture containing 40 mM Hepes pH 7.0, 200 mM NaCl, 0.1 mg/mL catalase, 0.5 mg/mL BSA, 10 μM ferrous ammonium sulfate, and 30 μM L-tryptophan (L-Trp). Compounds were incubated with TPH1 (0.02 mg/mL) in the reaction mixture for 10 min on ice.

[2] = target: T5, doubly truncated human TPH1 (ΔNH102-ΔCOOH402) (Homo sapiens, UniProt P17752); assay: TPH1 enzyme activity assay (HPLC, 5-OH-Trp); format: biochemical; details: for IC50: best-fit IC50 (± SE), nonlinear regression, N.A. = no activity
T5 construct: doubly truncated human TPH1 (ΔNH102-ΔCOOH402); made in house; host or cells: E. coli BL21(DE3)
Experimental: as §1

human recombinant HDAC1 = target: T6, human recombinant HDAC1 (Homo sapiens, UniProt Q13547); assay: HDAC1 activity assay (homogeneous fluorescence, ZMAL); format: biochemical; details: 1.11–30 μM compound, DMSO (5%) control
T6 construct: purchased BPS Bioscience 50051
Experimental: HDAC1 inhibition was determined by using a homogeneous fluorescence assay as previously described.[58] For HDAC1 activity assay, OptiPlate-96 black microplates (PerkinElmer) were used.

HDAC 8 = details: human recombinant HDAC; ref 1 (PMID: 26443078); cited from earlier work
[3] = estimated from DSF dose-response, 2% DMSO

T5 sequence (P17752 102-402, stated change not applied): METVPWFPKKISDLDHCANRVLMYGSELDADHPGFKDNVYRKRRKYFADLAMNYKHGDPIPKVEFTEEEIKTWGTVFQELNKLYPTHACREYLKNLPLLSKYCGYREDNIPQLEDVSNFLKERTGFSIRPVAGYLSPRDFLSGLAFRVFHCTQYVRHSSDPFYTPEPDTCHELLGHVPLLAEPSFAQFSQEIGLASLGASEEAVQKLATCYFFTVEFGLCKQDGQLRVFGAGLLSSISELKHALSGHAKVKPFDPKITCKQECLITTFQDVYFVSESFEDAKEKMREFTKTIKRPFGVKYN
T1 sequence (P17752 102-402): as the sequence (P17752 102-402, stated change not applied) above
T3 sequence (P07101 1-497 isoform P07101-3): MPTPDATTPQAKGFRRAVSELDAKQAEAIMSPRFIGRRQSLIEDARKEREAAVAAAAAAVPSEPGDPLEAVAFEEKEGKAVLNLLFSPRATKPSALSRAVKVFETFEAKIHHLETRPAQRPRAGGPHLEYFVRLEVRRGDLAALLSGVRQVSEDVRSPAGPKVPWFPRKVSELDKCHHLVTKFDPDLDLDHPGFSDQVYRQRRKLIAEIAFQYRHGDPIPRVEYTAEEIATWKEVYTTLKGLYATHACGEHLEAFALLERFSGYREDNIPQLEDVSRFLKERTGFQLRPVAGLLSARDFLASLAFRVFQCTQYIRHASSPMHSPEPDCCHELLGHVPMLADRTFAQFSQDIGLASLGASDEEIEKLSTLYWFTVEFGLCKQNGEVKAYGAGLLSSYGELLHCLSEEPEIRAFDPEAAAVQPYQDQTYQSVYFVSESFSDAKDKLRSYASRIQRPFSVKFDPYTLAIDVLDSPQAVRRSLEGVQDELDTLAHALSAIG
T6 sequence (Q13547 whole entry): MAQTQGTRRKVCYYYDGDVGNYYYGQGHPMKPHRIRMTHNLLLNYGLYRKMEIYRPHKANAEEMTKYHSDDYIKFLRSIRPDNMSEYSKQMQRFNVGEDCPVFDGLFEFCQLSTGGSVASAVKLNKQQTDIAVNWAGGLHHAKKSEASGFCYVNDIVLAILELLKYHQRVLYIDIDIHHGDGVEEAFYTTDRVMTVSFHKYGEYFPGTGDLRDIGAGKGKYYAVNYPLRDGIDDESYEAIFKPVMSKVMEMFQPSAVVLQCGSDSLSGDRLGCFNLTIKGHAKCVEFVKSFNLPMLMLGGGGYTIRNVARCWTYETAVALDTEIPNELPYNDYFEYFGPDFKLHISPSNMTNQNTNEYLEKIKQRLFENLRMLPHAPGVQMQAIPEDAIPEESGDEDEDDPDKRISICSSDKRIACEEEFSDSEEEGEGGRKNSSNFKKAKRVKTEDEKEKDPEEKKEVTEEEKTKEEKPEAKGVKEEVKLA

Compound | Tm (°C) ± SD (°C), primary screen (TPH1) | ΔTm (°C) ± SD (°C), primary screen (TPH1) | Kd (TPH1; [3]) | further results
Oc1ccccc1-c1nc2ccccc2o1 [2-(2-OH-phenyl)benzoxazol, 2-(2-hydroxyphenyl)benzoxazole, reference compound] | 57.6 ± 0.7 °C |  |  | ΔTm at 50 µM (TPH1): 2.3 ± 0.9 °C
Cc1ccc(C(=O)NO)cc1C(=O)Nc1ccc(Cl)cc1 [EG23, 3-(4-Chlorophenylcarbamoyl)-N-hydroxy-4-methylbenzamide] | 58.2 ± 0.2 °C | 2.7 ± 0.2 °C | 14.1 µM | 
Cc1cc2cc(NS(=O)(=O)c3cc(C(=O)NO)ccc3Cl)ccc2n(C)c1=O [EG29, 4-Chloro-3-[(1,3-dimethyl-2-oxo-1,2-dihydroquinolin-6-yl)sulfamoyl]-N-hydroxybenzamide] | 57.8 ± 0.0 °C | 2.3 ± 0.2 °C | 10.3 µM | 
COc1ccc2c(c1)N(Cc1ccc(C(=O)NO)cc1)c1ccccc1S2 [KV103, N-Hydroxy-4-[(2-methoxy-10H-Phenothiazin-10-yl)methyl]benzamide] | 59.6 ± 0.7 °C | 4.3 ± 0.5 °C | 49.4 µM | IC50 (HDAC 6): 0.01 ± 0.001 µM; IC50 (human PAH; read-out: IC50 (μM) PAH): 8.12 ± 1.67 µM; IC50 (human TH isoform 1 (TH1)): 100 ± 128 µM; IC50 (HDAC 1): 2.07 ± 0.19 µM; IC50 (human TPH2): 9.78 ± 17.2 µM; IC50 [2]: 106 ± 177 µM; inhibition of TPH1 activity at 50 μM ([2]; compound 50 μM, 0.5% DMSO): more than 50%
N[C@@H](Cc1ccc(Cl)cc1)C(=O)O [L-PCPA, 4-chloro-L-phenylalanine] |  |  |  | effect on HDAC1 activity (human recombinant HDAC1): do not inhibit
Nc1ccccc1NC(=O)c1ccc(CNC(=O)OCc2cccnc2)cc1 [entinostat, reference compound] | 56.0 ± 0.4 °C |  |  | ΔTm at 50 µM (TPH1): 0.7 ± 0.3 °C
Cc1ccn(-c2cc(Cl)ccc2[C@@H](Oc2cc(-c3ccc(C[C@H](N)C(=O)O)cc3)nc(N)n2)C(F)(F)F)n1 [telotristat] |  |  |  | IC50 (human PAH; read-out: IC50 (μM) PAH): 4.9 µM; IC50 (human TH isoform 1 (TH1)): 4.2 µM; effect on HDAC1 activity (human recombinant HDAC1): do not inhibit
O=C(CCCCCCC(=O)Nc1ccccc1)NO [vorinostat, reference compound] | 56.4 ± 1.9 °C |  |  | IC50 (HDAC 8): […]; IC50 (human PAH; IC50 (μM) PAH): 1.72 ± 0.61 µM; ΔTm at 50 µM (TPH1): 1.1 ± 2.1 °C
CC(C)c1cccc(=O)c(O)c1 [β-thujaplicin, reference compound] |  |  |  | IC50 (human PAH; read-out: IC50 (μM) PAH): 0.46 µM and 0.5 µM; IC50 (human TH isoform 1 (TH1)): 1.37 µM and 1.4 µM; effect of increasing compound concentration on the Tm of TPH1 (TPH1; DSF dose-response): concentration-dependent shift by decreasing the Tm; ΔTm at 50 µM (TPH1): -1.7 ± 0.1 °C; apparent KD (μM), dose-response (TPH1; [3]): very low affinity; IC50 (human TPH2): 12.9 µM; IC50 [2]: 12.6 µM; inhibition at 50 µM ([2]; compound 50 μM, 0.5% DMSO): > 50%

More lines, main results first:

Tm (°C) ± SD (°C), primary screen (TPH1) | ΔTm (°C) ± SD (°C), primary screen (TPH1) | Kd (TPH1; [3]) | Compound | further results
58.5 ± 0.2 ^a °C | 3.1 ± 0.0 °C | 30.9 µM | O=C(NO)c1coc(C(c2ccccc2)c2ccccc2)n1 [JS32, 2-(diphenylmethyl)-1,3-oxazole-4-carbohydroxamic acid] | solubility at the highest concentrations [1]: solubility issues
59.1 ± 0.5 ^a °C | 3.6 ± 0.3 °C | > 100 µM | O=C(NO)c1ccc(CN2c3ccccc3Sc3ccccc32)cc1 [KV46, 4-[(10H-phenothiazin-10-yl)methyl]-N-hydroxybenzamide] | solubility at the highest concentrations [1]: solubility issues
57.0 ± 0.2 °C | 1.6 ± 0.1 °C | 54.6 µM | COc1ccc(C(=O)NO)cc1OCc1ccccc1 [PZ031, 3-Benzyloxy-4-methoxybenzhydroxamic acid] | 
58.0 ± 0.3 °C | 2.7 ± 0.0 °C |  | COC(=O)[C@H](Cc1ccc(-c2ccc(C)cc2)cc1)NC(=O)CCCCCCC(=O)NO [SW189] | 
59.7 ± 0.4 °C | 4.4 ± 0.4 °C | 0.7 µM and 1.4 µM | O=C(NO)c1cc2ccccc2[nH]1 [TB74, 1H-Indole-2-hydroxamic acid] | inhibition of TPH1 activity at 50 μM ([2]; compound 50 μM, 0.5% DMSO): no significant inhibition; solubility at the highest concentrations [1]: solubility issues
58.1 ± 0.3 °C | 2.8 ± 0.1 °C | 76.3 µM | O=C(NO)c1cccc(NCc2ccccc2)c1 [TH28, 3-N-Benzylamino-benzohydroxamate] | 
60.0 ± 0.3 °C | 4.7 ± 0.1 °C | 1.8 µM | COc1ccc(C(=O)NO)cc1NS(=O)(=O)c1ccc(C)cc1 [TH71, 3-(N-para-touluenyl)-sulfonamido-4-methoxy-benzohydroxamate] | 

From article PMC11587510, “Aromatic Amino Acid Hydroxylases as Off-Targets of Histone Deacetylase Inhibitors” (ACS Chemical Neuroscience, 2024)
